Experimental data: patent US6525091B2, “Substituted diarylureas as stimulators for Fas-mediated apoptosis” (Telik, Inc., priority 2001, dated 2003)

Experiments:
synoviocytes = test: Stimulation of Fas-mediated apoptosis with h-HFE7A anti-human Fas antibody, XTT cell viability, stimulation index; type: cell-based; conditions: 10 μM compound with h-HFE7A 1000 ng/mL, synoviocytes from rheumatoid arthritis patients, 16 hours
Source text: Anti-human Fas antibody h-HFE7A, humanized antibody was obtained from Sankyo Co., Ltd. This antibody induces apoptosis when cross-linked with secondary antibody in vitro.
Samples of human synovium were obtained from rheumatoid arthritis patients at the time of total knee replacement surgery or synoviectomy. Synovial tissue was minced into small pieces and was digested with collagenase and cultured in Ham's F12 medium supplemented with 10% fetal bovine serum (F10F) in a humidified 5% CO2 atmosphere at 37° C. Adherent cells were considered as synoviocytes and were cultivated in F10 F.
Cell viability was determined with the XTT method described in Cancer Res. 48:4827 (1988). Ninety-six well flat plates were precoated with anti-human IgG. h-HFE7A (1000 ng/mL) and/or 10 μM of a compound of this invention were added and incubated for 2 hours. Synoviocytes were seeded (10,000/well) and incubated for 16 hours. Background wells received culture medium only. XTT (2,3-Bis[2-methoxy-4-nitro-sulfophenyl]-2H-tetrazolium-5-carboxanilide), final concentration 200 μg/mL, and phenazine methosulfate, final concentration 5 μM, were added to each well, and further incubated for 4 hours. The absorbance at 450 nm was measured and cell viability was determined as follows: [formula]
Enhancement of Fas-mediated apoptosis by compounds of this invention was determined by the stimulation index (SI): [formula] […]

hepatocytes = test: Fas-dependent apoptosis, FACS analysis of DNA fragmentation (propidium iodide) and annexin V staining; type: cell-based; conditions: at 10 μM
Method: Assays for Fas-dependent apoptosis are known in the art. See, for example, Ruiz-Ruiz et al, Cell Death Diff. 271 (1999); and Muller et al., J. Exp. Therap. 188:2033 (1998).
Apoptosis is identified by detection of the DNA fragmentation pattern characteristic of apoptotic cell death. In this Example, apoptosis is detected and measured by FACS® analysis carried out in a FACScan® flow cytometer (Becton Dickinson) using CellQuest software. Quantification of DNA fragmentation is performed by FACS® analysis of propidium iodide-stained nuclei as described in Nicolletti et al., J. Immunol. Methods 139:271-279 (1991). Hepatocytes floating in the culture medium are collected by centrifugation at 200×g. Adherent hepatocytes are harvested-by incubation with 1% trypsin for 1 min. The cells are washed in phosphate-buffered saline (PBS), suspended in hypotonic lysis buffer (0.1% sodium citrate, 0.1% Triton X, and […] propidium iodide) (Sigma) and incubated at 4° C. for 6 hours. Cells are then analyzed for DNA content by flow cytometry.
Early apoptotic changes are identified using annexin V-Fluos (Boehringer Mannheim) which binds to phosphatidylserine molecules (PS) exposed on apoptotic, but not normal, cell membranes (PS is normally restricted to the inner leaflet of the cell membrane bilayer). […] Cells are incubated for 10-15 min and analyzed on a flow cytometer using CellQuest software. […]

Structure (SMILES): O=C(Nc1ccc(Br)c([N+](=O)[O-])c1)Nc1ccc(Br)c([N+](=O)[O-])c1 [Compound 3]
- Enhancement of Fas-mediated apoptosis, stimulation index (SI) (synoviocytes): positive (An SI over 2.0 was considered positive)
- stimulation of Fas-dependent apoptosis (hepatocytes): stimulation of Fas-dependent apoptosis
